Experiments:
[1] = system: Rats; test: Cholesterol / epicholesterol enriched diets in rats: plasma and liver total cholesterol (enzymatic colorimetric method); format: in vivo, Male Sprague Dawley rats; conditions: 4 days
Description: (§1) Male Sprague Dawley rats weighing 250 g and male CD mice weighing 22-25 g (Charles River) were housed in rooms maintained at 21±1°C with relative humidity 50-60% and a 12 hours light-dark cycle. After a week of housing, the animals were allocated to the different experimental groups and received one of the following diets: • a) rat or mouse chow diet, containing 0.5% sodium cholate; • b) cholesterol enriched diet, containing 0.5% sodium cholate and 1.5% cholesterol; • c) epicholesterol enriched diet, containing 0.5% sodium cholate and 1.5% epicholesterol; • d) epicholesterol and cholesterol enriched diet containing 0.5% sodium cholate and 1.5% of both sterols. Weight of the animals and food consumption were recorded daily. After overnight fasting, the animals were anesthetized with sodium pentobarbital (50 mg/kg body weight) and exsanguinated from the abdominal aorta. Plasma was obtained by low speed (3000 g for 10 min) centrifugation of whole blood containing Na₂EDTA as anticoagulant. Plasma lipid extracts were prepared according to Bligh E.G., Dyer W.J., Can. J. Bioch. Physiol, 31, 911, 1959. Liver specimens (500 mg) were excised from the lateral liver lobe, washed in ice-cold saline, and immediately placed on dry-ice and stored at -80°C. They were extracted according to the method of Folch J. et al., J. Biol. Chem. , 226, 497, 1957, as modified by Carlson L.A., J. Atheroscler. Res., 3, 334, 1963. Plasma and liver total cholesterol content (i.e. unesterified and esterified cholesterol fractions) were determined by the enzymatic colorimetric method of Allain et al., Clin. Chem., 20, 470, 1974. In this assay epicholesterol is not read.

[2] = system: Mice; test: Cholesterol / epicholesterol enriched diets in mice: plasma and liver total cholesterol (enzymatic colorimetric method); format: in vivo, male CD mice; conditions: 4 days
Description: as §1

[3] = Gas liquid chromatography of unesterified sterols in plasma and liver of mice fed enriched diets; format: in vivo; conditions: for Percent Distribution Epicholesterol (unesterified sterol content): 1.5% sterol enriched diet, Mean ± SD, n=3, nd: not detectable
Description: Male Sprague Dawley rats weighing 250 g and male CD mice weighing 22-25 g (Charles River) were housed in rooms maintained at 21±1°C with relative humidity 50-60% and a 12 hours light-dark cycle. After a week of housing, the animals were allocated to the different experimental groups and received one of the following diets: • a) rat or mouse chow diet, containing 0.5% sodium cholate; • b) cholesterol enriched diet, containing 0.5% sodium cholate and 1.5% cholesterol; • c) epicholesterol enriched diet, containing 0.5% sodium cholate and 1.5% epicholesterol; • d) epicholesterol and cholesterol enriched diet containing 0.5% sodium cholate and 1.5% of both sterols. Weight of the animals and food consumption were recorded daily.
After overnight fasting, the animals were anesthetized with sodium pentobarbital (50 mg/kg body weight) and exsanguinated from the abdominal aorta. Plasma was obtained by low speed (3000 g for 10 min) centrifugation of whole blood containing Na₂EDTA as anticoagulant.
Plasma lipid extracts were prepared according to Bligh E.G., Dyer W.J., Can. J. Bioch. Physiol, 31, 911, 1959.
Liver specimens (500 mg) were excised from the lateral liver lobe, washed in ice-cold saline, and immediately placed on dry-ice and stored at -80°C. They were extracted according to the method of Folch J. et al., J. Biol. Chem. , 226, 497, 1957, as modified by Carlson L.A., J. Atheroscler. Res., 3, 334, 1963.
Lipids extract from plasma and liver were separated by TLC on Silica Gel plates from Merck using petroleum ether 40-70°/diethyl ether/acetic acid (80:20:1) as developing system. Cholesterol, epicholesterol, dihydrocholesterol, and 7-keto-cholesterol as representative of the oxysterol class of sterols migrated with very similar Rf and could be recovered as a single area from the TLC plate. These sterols were eluted from the silica using chloroform and were dried by evaporation under N₂. The samples were redissolved in pyridine and derivatizated adding an equal volume of MBSTFA [N-methyl-N(tert-butyldimethylsilyl)Trifluoroacetamide].
After 20 minutes at room temperature the samples were analyzed by GLC according to Smith N.B., Lipids, 17, 464, 1982, on a Carlo Erba Mega 3000 gaschromatographer equipped with a flame ionization detector and a 25 m OV1 column (0.2 mm id., film thickness 0.2-0.25). He was used as carrier at 100 Kps. The splitless injection technique was used and 1-2 µl sample were injected. […] The injection and the detector temperatures were respectively 340°C and 350°C. Retention time of cholesterol, epicholesterol, dihydrocholesterol and 7keto-cholesterol were determined by injecting pure sterols.

[4] = Micellar cholesterol solubilization in vitro; format: physicochemical; conditions: for Micellar Cholesterol Content: cholesterol 1 mM
Description: The micellar solubility of cholesterol in vitro was measured by the method of Ikeda I., Tanabe Y. and Sugano M. , J. Nutr. Sci. Vitaminol. 35, 361, 1989. In detail, cholesterol (1 mM) or mixture of cholesterol (1 mM) and epicholesterol (0.5-8 mM) were sonicated for 2 minutes at 37°C in 15 mM NaPO₄ buffer, pH 7.4, containing 0.6 mM egg yolk lecithin, 1 mM oleic acid, 0.5 mM monolein, 6.6 mM Na taurocholate, and 132 mM NaCl. After incubation at 37°C overnight, the solutions were subjected to ultracentrifugation (100,000 g for 60 min at 37°C). Samples of the supernatant were assayed for the cholesterol content.

[5] = diet with 0.5% sodium cholate and 1.5% of the single sterol
[6] = diet with 0.5% sodium cholate and 1.5% of the single sterol, listed as cholesterol
[7] = diet with 0.5% sodium cholate and 1.5% of the single sterol, mean±spread
[8] = diet with 0.5% sodium cholate and 1.5% of the single sterol, listed as epicholesterol
[9] = diet with 1.5% Cholesterol and 1.5% Epicholesterol together, 0.5% sodium cholate
[10] = diet with 1.5% Cholesterol and 1.5% Epicholesterol together, 0.5% sodium cholate, listed as epicholesterol

With `CC(C)CCC[C@@H](C)[C@H]1CC[C@H]2[C@@H]3CC=C4C[C@@H](O)CC[C@]4(C)[C@H]3CC[C@]12C` [Cholesterol] the “CHOLESTEROL CONCENTRATION IN LIVER” value [1, 5] was “**11.28±1.48 (n=7) mg/g fresh tissue”, the “CHOLESTEROL CONCENTRATION IN LIVER” value [1, 6] was “at least a fourfold increase” and the “CHOLESTEROL CONCENTRATION IN PLASMA” value [1, 7] was “**178±45 (n=7) mg/dl”. The “CHOLESTEROL CONCENTRATION IN PLASMA” value ([1]; diet with 0.5% sodium cholate and 1.5% of the single sterol, mean±spread, listed as cholesterol) was “rose significantly”, the “CHOLESTEROL CONCENTRATION IN LIVER” value [2, 5] was “**18.70±2.60 (n=10) mg/g fresh tissue” and the “CHOLESTEROL CONCENTRATION IN PLASMA” value [2, 5] was “**152±19 (n=10) mg/dl”. For the same molecule, the “CHOLESTEROL CONCENTRATION IN LIVER” value [2, 6] was “at least a fourfold increase” and the “CHOLESTEROL CONCENTRATION IN PLASMA” value [2, 6] was “rose significantly”.

In the case of `CC(C)CCC[C@@H](C)[C@H]1CC[C@H]2[C@@H]3CC=C4C[C@H](O)CC[C@]4(C)[C@H]3CC[C@]12C` [Epicholesterol, cholest-5-en-3α-ol], the “absorption by the intestine” value ([3]; conclusion from plasma and liver sterol content of mice fed 1.5% epicholesterol diet) is reported as “only minimally absorbed”, the “Percent Distribution Epicholesterol (unesterified sterol content)” value (shortened to “Percent Distribution Epicholesterol”) ([3]; mice liver) is reported as 1.0±0.4% and the “Percent Distribution Epicholesterol” value ([3]; mice liver, listed as epicholesterol) is reported as “only trace amount”. For the same molecule, the “Percent Distribution Epicholesterol” value ([3]; mice plasma) was 2.6±1.5%, the “Percent Distribution Epicholesterol” value ([3]; mice plasma, listed as epicholesterol) was “only trace amount” and the “Micellar Cholesterol Content” value ([4]; Cholesterol-to-Epicholesterol Ratio 0.125) was 0.18 ± 0.02 mM. For the same molecule, the “Micellar Cholesterol Content” value ([4]; Cholesterol-to-Epicholesterol Ratio 0.25) was 0.22 ± 0.03 mM, the “Micellar Cholesterol Content” value ([4]; Cholesterol-to-Epicholesterol Ratio 0.5) was 0.23 ± 0.06 mM and the “Micellar Cholesterol Content” value ([4]; Cholesterol-to-Epicholesterol Ratio 1) was 0.42 ± 0.03 mM. For the same molecule, the “Micellar Cholesterol Content” value ([4]; Cholesterol-to-Epicholesterol Ratio 2, control (cholesterol only) 1.00 ± 0.05) was 0.71 ± 0.05 mM, the “decrease of cholesterol micellar solubility” value ([4]; cholesterol and epicholesterol in a 1 to 0.5 molar ratio) was “more than 30%” and the cholesterol micellar solubility ([4]; epicholesterol and cholesterol mixed together, all the concentrations tested of epicholesterol (0.5-8 mM)) was “significantly decreased”. For the same molecule, the “CHOLESTEROL CONCENTRATION IN LIVER” value [1, 5] was “°° 2.59±0.38 (n=3) mg/g fresh tissue”, the “CHOLESTEROL CONCENTRATION IN LIVER” value [1, 8] was “did not brought about any significant change” and the “CHOLESTEROL CONCENTRATION IN PLASMA” value [1, 7] was “°° 64±18 (n=3) mg/dl”. The “CHOLESTEROL CONCENTRATION IN PLASMA” value ([1]; diet with 0.5% sodium cholate and 1.5% of the single sterol, mean±spread, listed as epicholesterol) was “did not brought about any significant change”, the “CHOLESTEROL CONCENTRATION IN LIVER” value [1, 9] was “** 5.71±0.95 °° (n=3) □ mg/g fresh tissue” and the “CHOLESTEROL CONCENTRATION IN PLASMA” value [1, 9] was “**103±9 ° (n=3) □ mg/dl”. The “CHOLESTEROL CONCENTRATION IN LIVER” value [1, 10] was “significant decrease”, the “CHOLESTEROL CONCENTRATION IN PLASMA” value [1, 10] was “significant decrease” and the “CHOLESTEROL CONCENTRATION IN LIVER” value [2, 5] was “°° 2.58±0.16 (n=10) mg/g fresh tissue”. The “CHOLESTEROL CONCENTRATION IN PLASMA” value [2, 5] was “* 93±15 °°(n=10) mg/dl”, the “CHOLESTEROL CONCENTRATION IN LIVER” value [2, 8] was “did not brought about any significant change” and the “CHOLESTEROL CONCENTRATION IN PLASMA” value [2, 8] was “did not brought about any significant change”. For the same molecule, the “CHOLESTEROL CONCENTRATION IN LIVER” value [2, 9] was “** 9.54±1.49 °° (n=10) □□ mg/g fresh tissue”, the “CHOLESTEROL CONCENTRATION IN PLASMA” value [2, 9] was “**115±26 □(n=10) mg/dl” and the “CHOLESTEROL CONCENTRATION IN LIVER” value [2, 10] was “significant decrease”. For the same molecule, the “CHOLESTEROL CONCENTRATION IN PLASMA” value [2, 10] was “significant decrease”.
